Among the data in ChEMBL document CHEMBL1128097, “Synthesis of Nh-acyl--aminoamides on rink resin: Inhibitors of the hematopoietic protein tyrosine phosphatase (HePTP)” (Bioorg Med Chem Lett, 1995) are IC50 values, retold here.

This assay in a line: In vitro inhibition of Hematopoietic protein-tyrosine phosphatase using p-nitrophenyl phosphate as substrate.

A word on the IC50: it is the point on the concentration scale where inhibition reaches its midpoint. A low value points to greater potency in that assay. Take `O=C(O)/C=C/c1ccc(C(=O)NC(C(=O)NCC(=O)O)c2ccccc2)cc1` (stereo not drawn): the IC50 amounted to 10.4 µM.

`CCCC(NC(=O)c1ccc(/C=C/C(=O)O)cc1)C(=O)NCc1ccccc1` (stereo not drawn): the midpoint of inhibition, the IC50, lay at 6.1 µM.

For the molecule `CCC(NC(=O)c1ccc(/C=C/C(=O)O)cc1)C(=O)NCc1ccccc1` (stereo not drawn), 15 µM corresponded to half-maximal inhibition (IC50). This IC50 is about 2.5-fold higher than that of the molecule before.

Molecule `O=C(O)/C=C/c1ccc(C(=O)NC(C(=O)NCc2ccccc2)c2ccccc2)cc1` (stereo not drawn) returned an IC50 of 3.9 µM.

Turning to `CC(NC(=O)c1ccc(/C=C/C(=O)O)cc1)C(=O)NCc1ccccc1` (stereo not drawn), the midpoint of inhibition, the IC50, lay at 7.2 µM.

For `CCCCCCC(NC(=O)c1ccc(/C=C/C(=O)O)cc1)C(=O)NCC(=O)O` (stereo not drawn), the midpoint of inhibition, the IC50, lay at 7.5 µM. The IC50 values of the last two molecules are within 1.5-fold of each other.

The molecule `CCOC(=O)CNC(=O)C(NC(=O)c1ccc(/C=C/C(=O)O)cc1)c1ccccc1` (stereo not drawn) showed an IC50 of 9.6 µM.

The molecule `CCCCCCC(NC(=O)c1ccc(/C=C/C(=O)O)cc1)C(=O)NC1CCCCC1` (stereo not drawn) had a concentration for half-maximal inhibition (IC50) of 9 µM.

With `CCCCCCC(NC(=O)c1ccc(/C=C/C(=O)O)cc1)C(=O)NCC(=O)OCC` (stereo not drawn), half-maximal inhibition (IC50) required 10 µM.

On to `CCCCNC(=O)C(NC(=O)c1ccc(/C=C/C(=O)O)cc1)c1ccccc1` (stereo not drawn), for which inhibition was half-maximal at 6.7 µM (IC50).

The molecule `O=C(O)/C=C/c1ccc(C(=O)NC(C(=O)NC2CCCCC2)c2ccccc2)cc1` (stereo not drawn) displayed an IC50 of 6.2 µM.

Molecule `CCCCCCC(NC(=O)c1ccc(/C=C/C(=O)O)cc1)C(=O)NCC(=O)OC` (stereo not drawn) had an IC50 of 7.2 µM.

Regarding `CCCCCCC(NC(=O)c1ccc(/C=C/C(=O)O)cc1)C(=O)NC(C)(C)C` (stereo not drawn), inhibition was half-maximal at 7.5 µM (IC50). This IC50 and that of the molecule before are within 1.5-fold of each other.

On to `CCCCC(NC(=O)c1ccc(/C=C/C(=O)O)cc1)C(=O)NCc1ccccc1` (stereo not drawn), for which the IC50 came to 6.3 µM.

Consider `CCCCCCC(NC(=O)c1ccc(/C=C/C(=O)O)cc1)C(=O)NCc1ccccc1` (stereo not drawn), for which inhibition was half-maximal at 6 µM (IC50).

The molecule `CCCCCCC(NC(=O)c1ccc(/C=C/C(=O)O)cc1)C(=O)NCCCC` (stereo not drawn) returned an IC50 of 9 µM.

Take `CC(C)(C)NC(=O)C(NC(=O)c1ccc(/C=C/C(=O)O)cc1)c1ccccc1` (stereo not drawn): the IC50 was 4 µM.

In turn, `COC(=O)CNC(=O)C(NC(=O)c1ccc(/C=C/C(=O)O)cc1)c1ccccc1` (stereo not drawn) had an IC50 of 20.2 µM.
